These results are taken from US10246429B2, “Vinyl fluoride cyclopropyl fused thiazin-2-amine compounds as beta-secretase inhibitors and methods of use” (AMGEN INC., priority 2015, dated 2019).

Assay [1] deals with T1, BACE1 (Homo sapiens (Human), UniProt P56817). The assay is described as follows: BACE1 cell assay. In kind it is cell-based.
Target sequence in this assay (P56817 46-501, species assumed): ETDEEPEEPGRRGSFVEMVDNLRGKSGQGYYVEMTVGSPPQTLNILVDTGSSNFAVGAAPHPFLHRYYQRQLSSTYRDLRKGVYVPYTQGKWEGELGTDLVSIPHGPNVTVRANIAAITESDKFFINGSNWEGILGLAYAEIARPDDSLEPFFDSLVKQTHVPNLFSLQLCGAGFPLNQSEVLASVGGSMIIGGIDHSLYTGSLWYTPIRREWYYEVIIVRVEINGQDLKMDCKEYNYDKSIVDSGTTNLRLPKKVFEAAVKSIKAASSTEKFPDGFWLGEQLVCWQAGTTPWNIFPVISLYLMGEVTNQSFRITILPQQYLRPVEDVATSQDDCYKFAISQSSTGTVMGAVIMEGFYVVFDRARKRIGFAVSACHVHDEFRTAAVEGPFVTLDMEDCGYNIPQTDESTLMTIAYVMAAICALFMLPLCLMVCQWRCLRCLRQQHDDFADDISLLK
In assay [2] the target is T1, BACE1. Briefly: In vitro enzymatic BACE1 FRET assay. In kind it is biochemical. The settings on record: read-out: IC50 IP (μM) BACE1 Enzyme.
Target sequence in this assay (P56817 46-501): as the sequence (P56817 46-501, species assumed) above
Excerpt: (§1) In Vitro Enzymatic BACE1 and BACE2 FRET (Fluorescence Resonance Energy Transfer) Assays (Enzyme Assay Data in Table 1)
Assay [3] addresses BACE2 (Homo sapiens (Human), UniProt Q9Y5Z0). The assay is described as follows: In vitro enzymatic BACE2 FRET assay. The settings on record: read-out: IC50 IP (μM) BACE2 Enzyme. In kind it is biochemical.
Excerpt: as §1
Assay [4] addresses Cathepsin D (CatD) (Homo sapiens (Human), UniProt P07339). The assay is described as follows: CatD assay. It counts as biochemical. The settings on record: read-out: IC50 IP (μM) CatD.
Where [5] appears, read: read-out: IC50 IP (μM) BACE1 Cell.

Sequence of Cathepsin D (CatD) (P07339 65-412, species assumed): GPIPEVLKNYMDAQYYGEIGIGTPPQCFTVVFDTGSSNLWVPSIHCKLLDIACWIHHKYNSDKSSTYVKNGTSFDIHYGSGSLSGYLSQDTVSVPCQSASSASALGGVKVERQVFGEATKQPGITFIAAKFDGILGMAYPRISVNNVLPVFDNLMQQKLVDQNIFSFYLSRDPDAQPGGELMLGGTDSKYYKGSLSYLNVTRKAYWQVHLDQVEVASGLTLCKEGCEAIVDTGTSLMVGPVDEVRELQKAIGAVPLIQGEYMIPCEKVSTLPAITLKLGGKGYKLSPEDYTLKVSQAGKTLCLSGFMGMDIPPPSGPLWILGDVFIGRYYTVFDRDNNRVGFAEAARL
Sequence of BACE2 (Q9Y5Z0 63-518): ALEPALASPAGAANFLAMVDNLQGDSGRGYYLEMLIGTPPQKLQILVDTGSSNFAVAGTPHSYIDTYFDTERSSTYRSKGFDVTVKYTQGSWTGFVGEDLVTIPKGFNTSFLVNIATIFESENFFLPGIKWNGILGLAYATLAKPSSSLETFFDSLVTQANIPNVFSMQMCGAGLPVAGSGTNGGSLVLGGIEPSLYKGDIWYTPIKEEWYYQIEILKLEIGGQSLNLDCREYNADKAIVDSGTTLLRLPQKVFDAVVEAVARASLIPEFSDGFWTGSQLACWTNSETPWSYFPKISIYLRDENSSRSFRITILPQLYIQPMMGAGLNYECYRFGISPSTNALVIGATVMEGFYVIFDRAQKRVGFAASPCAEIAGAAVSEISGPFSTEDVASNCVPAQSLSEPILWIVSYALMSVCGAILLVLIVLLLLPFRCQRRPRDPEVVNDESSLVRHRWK

As to `C#CCOc1cnc(/C(F)=C/c2ccc(F)c([C@@]3(C)N=C(N)S[C@@]4(C(=O)N5[C@H]6COC[C@@H]5COC6)C[C@H]43)c2)cn1` [Example 279, ((1S,5S,6S)-3-amino-5-(2-fluoro-5-((Z)-2-fluoro-2-(5-(prop-2-yn-1-yloxy)pyrazin-2-yl)vinyl)phenyl)-5-methyl-2-thia-4-azabicyclo[4.1.0]hept-3-en-1-yl)((1R,5R)-3,7-dioxa-9-azabicyclo[3.3.1]nonan-9-yl)methanone], the IC50 worked out at 0.001 µM in assay [1] (setting [5]), 0.0012 µM in assay [2], 0.176 µM in assay [3] and 42 µM in assay [4].
In the same order, the values of `C#CCOc1cnc(/C(F)=C/c2cnc(F)c([C@@]3(C)N=C(N)S[C@@]4(C(=O)N5CC[C@H](F)C5)C[C@H]43)c2)cn1` [Example 280, ((1S,5S,6S)-3-amino-5-(2-fluoro-5-((Z)-2-fluoro-2-(5-(prop-2-yn-1-yloxy)pyrazin-2-yl)vinyl)pyridin-3-yl)-5-methyl-2-thia-4-azabicyclo[4.1.0]hept-3-en-1-yl)((S)-3-fluoropyrrolidin-1-yl)methanone] are 0.0016 µM, 0.0013 µM, 0.119 µM and 115 µM.
Turning to `C[C@]1(c2cc(/C=C(\F)c3ccc(C#N)cn3)cnc2F)N=C(N)S[C@@]2(C(=O)NCC(F)F)C[C@H]21` [Example 281, (1S,5S,6S)-3-amino-5-(5-((Z)-2-(5-cyanopyridin-2-yl)-2-fluorovinyl)-2-fluoropyridin-3-yl)-N-(2,2-difluoroethyl)-5-methyl-2-thia-4-azabicyclo[4.1.0]hept-3-ene-1-carboxamide], the IC50 in assay [1] was 0.0542 µM; in assay [2], 0.0214 µM; in assay [3], 0.164 µM; in assay [4], 269 µM.
For the compound `C#CCOc1cnc(/C(F)=C/c2cnc(F)c([C@@]3(C)N=C(N)S[C@@]4(C(=O)N(C)C)C[C@H]43)c2)cn1` [Example 287, (1S,5S,6S)-3-amino-5-(2-fluoro-5-((Z)-2-fluoro-2-(5-(prop-2-yn-1-yloxy)pyrazin-2-yl)vinyl)pyridin-3-yl)-N,N,5-trimethyl-2-thia-4-azabicyclo[4.1.0]hept-3-ene-1-carboxamide], the IC50 in assay [1] (setting [5]) amounted to 0.0022 µM; in assay [2], 0.0019 µM; in assay [3] it was 0.04 µM; in assay [4], 206 µM.
Take `CC#CCOc1cnc(/C(F)=C/c2cnc(F)c([C@@]3(C)N=C(N)S[C@@]4(C(=O)N(C)C)C[C@H]43)c2)cn1` [Example 289, (1S,5S,6S)-3-amino-5-(5-((Z)-2-(5-(but-2-yn-1-yloxy)pyrazin-2-yl)-2-fluorovinyl)-2-fluoropyridin-3-yl)-N,N,5-trimethyl-2-thia-4-azabicyclo[4.1.0]hept-3-ene-1-carboxamide]: the IC50 worked out at 0.002 µM in assay [1] (setting [5]), 0.0008 µM in assay [2], 0.022 µM in assay [3] and 227 µM in assay [4].
On to `CN(C)C(=O)[C@]12C[C@H]1[C@@](C)(c1cc(/C=C(\F)c3cnc(OCC(F)(F)C(F)F)cn3)cnc1F)N=C(N)S2` [Example 291, (1S,5S,6S)-3-amino-5-(2-fluoro-5-((Z)-2-fluoro-2-(5-(2,2,3,3-tetrafluoropropoxy)pyrazin-2-yl)vinyl)pyridin-3-yl)-N,N,5-trimethyl-2-thia-4-azabicyclo[4.1.0]hept-3-ene-1-carboxamide], for which the IC50 in assay [1] is 0.326 µM; in assay [2], 0.0406 µM; in assay [3], 0.106 µM; in assay [4], 290 µM.
For `C#CCOc1cnc(/C(F)=C/c2cnc(F)c([C@@]3(C)N=C(N)S[C@@]4(C(=O)OC)C[C@H]43)c2)cn1` [Example 294, (1S,5S,6S)-methyl 3-amino-5-(2-fluoro-5-((Z)-2-fluoro-2-(5-(prop-2-yn-1-yloxy)pyrazin-2-yl)vinyl)pyridin-3-yl)-5-methyl-2-thia-4-azabicyclo[4.1.0]hept-3-ene-1-carboxylate methanone], the IC50 in assay [1] (setting [5]) worked out at 0.0949 µM; in assay [2], 0.0089 µM; in assay [3] it was 2.76 µM; in assay [4] it was 400 µM.
In the same order, the values of `C#CCOc1cnc(/C(F)=C/c2cnc(F)c([C@@]3(C)N=C(N)S[C@@]4(C(=O)N5CC[C@@H](F)C5)C[C@H]43)c2)cn1` [Example 295, ((1S,5S,6S)-3-amino-5-(2-fluoro-5-((Z)-2-fluoro-2-(5-(prop-2-yn-1-yloxy)pyrazin-2-yl)vinyl)pyridin-3-yl)-5-methyl-2-thia-4-azabicyclo[4.1.0]hept-3-en-1-yl)((R)-3-fluoropyrrolidin-1-yl)methanone] are 0.0004 µM, 0.0008 µM, 0.078 µM and 58.6 µM.
As for `CN(C)C(=O)[C@]12C[C@H]1[C@@](C)(c1cc(/C=C(\F)c3cnc(C#N)cn3)cnc1F)N=C(N)S2` [Example 296, (1S,5S,6S)-3-amino-5-(5-((Z)-2-(5-cyanopyrazin-2-yl)-2-fluorovinyl)-2-fluoropyridin-3-yl)-N,N,5-trimethyl-2-thia-4-azabicyclo[4.1.0]hept-3-ene-1-carboxamide], the IC50 in assay [1] was found to be 0.0435 µM; in assay [2], 0.0119 µM; in assay [3], 0.037 µM; in assay [4], 290 µM.
As to `C#CCOc1cnc(/C(F)=C/c2cnc(F)c([C@@]3(C)N=C(N)S[C@@]4(C(=O)NCC(F)F)C[C@H]43)c2)cn1` [Example 300, (1S,5S,6S)-3-amino-N-(2,2-difluoroethyl)-5-(2-fluoro-5-((Z)-2-fluoro-2-(5-(prop-2-yn-1-yloxy)pyrazin-2-yl)vinyl)pyridin-3-yl)-5-methyl-2-thia-4-azabicyclo[4.1.0]hept-3-ene-1-carboxamide], the IC50 was 0.0066 µM in assay [1], 0.0025 µM in assay [2], 0.411 µM in assay [3] and 20 µM in assay [4].
In the case of `C[C@H]1[C@@H](F)CCN1C(=O)[C@]12C[C@H]1[C@@](C)(c1cc(/C=C(\F)c3ccc(C#N)cn3)ccc1F)N=C(N)S2` [Example 306, 6-((Z)-2-(3-((1S,5S,6S)-3-amino-1-((2S,3S)-3-fluoro-2-methylpyrrolidine-1-carbonyl)-5-methyl-2-thia-4-azabicyclo[4.1.0]hept-3-en-5-yl)-4-fluorophenyl)-1-fluorovinyl)nicotinonitrile], the IC50 in assay [1] (setting [5]) was found to be 0.001 µM; in assay [2], 0.002 µM; in assay [3], 0.111 µM; in assay [4], 16.2 µM.
For `C[C@]1(c2cc(/C=C(\F)c3ccc(C#N)cn3)ccc2F)N=C(N)S[C@@]2(C(=O)N3CCOC4(COC4)C3)C[C@H]21` [Example 308, 6-((Z)-2-(3-((1S,5S,6S)-3-amino-5-methyl-1-(2,5-dioxa-8-azaspiro[3.5]nonane-8-carbonyl)-2-thia-4-azabicyclo[4.1.0]hept-3-en-5-yl)-4-fluorophenyl)-1-fluorovinyl)nicotinonitrile] the same measures were 0.001 µM, 0.0021 µM, 0.013 µM and 296 µM.
For the compound `C[C@@H]1COC[C@H](C)N1C(=O)[C@]12C[C@H]1[C@@](C)(c1cc(/C=C(\F)c3ccc(C#N)cn3)ccc1F)N=C(N)S2` [Example 313, 6-((Z)-2-(3-((1S,5S,6S)-3-amino-1-((3S,5R)-3,5-dimethylmorpholine-4-carbonyl)-5-methyl-2-thia-4-azabicyclo[4.1.0]hept-3-en-5-yl)-4-fluorophenyl)-1-fluorovinyl)nicotinonitrile], the IC50 was determined as 0.0022 µM in assay [1] (setting [5]), 0.0019 µM in assay [2], 0.147 µM in assay [3] and 257 µM in assay [4].
For `C[C@@H]1COC[C@@H](C)N1C(=O)[C@]12C[C@H]1[C@@](C)(c1cc(/C=C(\F)c3ccc(C#N)cn3)ccc1F)N=C(N)S2` [Example 314, 6-((Z)-2-(3-((1S,5S,6S)-3-amino-1-((3R,5R)-3,5-dimethylmorpholine-4-carbonyl)-5-methyl-2-thia-4-azabicyclo[4.1.0]hept-3-en-5-yl)-4-fluorophenyl)-1-fluorovinyl)nicotinonitrile] the same measures were 0.0067 µM, 0.0047 µM, 0.24 µM and 447 µM.
For the compound `C[C@]1(c2cc(/C=C(\F)c3ccc(C#N)cn3)ccc2F)N=C(N)S[C@@]2(C(=O)N3C4CCC3COC4)C[C@H]21` [Example 315, 6-((Z)-2-(3-((1S,5S,6S)-3-amino-1-(3-oxa-8-azabicyclo[3.2.1]octane-8-carbonyl)-5-methyl-2-thia-4-azabicyclo[4.1.0]hept-3-en-5-yl)-4-fluorophenyl)-1-fluorovinyl)nicotinonitrile], the IC50 is 0.0013 µM in assay [1], 0.0016 µM in assay [2], 0.071 µM in assay [3] and 390 µM in assay [4].
On to `CC(C)[C@H]1CN(C(=O)[C@]23C[C@H]2[C@@](C)(c2cc(/C=C(\F)c4ccc(C#N)cn4)ccc2F)N=C(N)S3)CCO1` [Example 316, 6-((Z)-2-(3-((1S,5S,6S)-3-amino-1-((S)-2-isopropylmorpholine-4-carbonyl)-5-methyl-2-thia-4-azabicyclo[4.1.0]hept-3-en-5-yl)-4-fluorophenyl)-1-fluorovinyl)nicotinonitrile], for which the IC50 was 0.007 µM in assay [1] (setting [5]), 0.003 µM in assay [2], 0.033 µM in assay [3] and 170 µM in assay [4].
For `CC(C)[C@@H]1CN(C(=O)[C@]23C[C@H]2[C@@](C)(c2cc(/C=C(\F)c4ccc(C#N)cn4)ccc2F)N=C(N)S3)CCO1` [Example 317, 6-((Z)-2-(3-((1S,5S,6S)-3-amino-1-((R)-2-isopropylmorpholine-4-carbonyl)-5-methyl-2-thia-4-azabicyclo[4.1.0]hept-3-en-5-yl)-4-fluorophenyl)-1-fluorovinyl)nicotinonitrile] the same measures were 0.007 µM, 0.0018 µM, 0.007 µM and 115 µM.

As usually defined, the IC50 is the concentration that gives 50% inhibition.
